These results are taken from patent US11407738B2 (Achillion Pharmaceuticals, Inc., priority 2015, dated 2022).

Molecules are shown by their SMILES.

Sequence of Human Factor D (P00746 26-253): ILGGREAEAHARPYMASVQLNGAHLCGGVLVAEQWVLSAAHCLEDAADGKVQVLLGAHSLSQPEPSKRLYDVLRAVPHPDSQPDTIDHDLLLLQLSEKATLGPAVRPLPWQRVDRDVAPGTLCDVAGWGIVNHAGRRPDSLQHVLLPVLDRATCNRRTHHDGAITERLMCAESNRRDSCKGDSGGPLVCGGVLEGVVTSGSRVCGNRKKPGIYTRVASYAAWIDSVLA

The target of the first assay is Human Factor D (Homo sapiens (Human), UniProt P00746). In words: Human Factor D assay. In kind it is biochemical. The note with it: Table 3; Factor D inhibition, substrate Z-L-Lys-SBzl. The procedure, abridged:
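Serum-purified human factor D (80 nM final) preincubated 5 min at room temperature with test compound in 50 mM Tris, 1M NaCl, pH 7.5. Z-L-Lys-SBzl substrate and DTNB then added, each at 100 μM final. IC50 from nonlinear regression of reaction rate against compound concentration.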
Turning to `CC(=O)c1nn(CC(=O)N2C[C@H](F)C[C@H]2C(=S)NCc2cccc(Cl)c2F)c2ccc(-c3cnc(C)nc3)cc12` [Compound 517, (2S,4R)-1-(2-(3-Acetyl-5-(2-methylpyrimidin-5-yl)-1H-indazol-1-yl)acetyl)-N-(3-chloro-2-fluorobenzyl)-4-fluoropyrrolidine-2-carbothioamide], the IC50 (usually the concentration at which inhibition is half-maximal) was < 1 µM.

As for `CC(=O)c1nn(CC(=O)N2C[C@H](F)C[C@H]2C(=O)Nc2cccc(-c3cc(S(=O)(=O)NC4CC4)ccc3Cl)c2F)c2ccc(-c3cnc(C)nc3)cc12` [Compound 521, (2S,4R)-1-(2-(3-acetyl-5-(2-methylpyrimidin-5-yl)-1H-indazol-1-yl)acetyl)-N-(2′-chloro-5′-(N-cyclopropyl-sulfamoyl)-2-fluorobiphenyl-3-yl)-4-fluoropyrrolidine-2-carboxamide], the IC50 is < 1 µM.

`CC(=O)c1cn(CC(=O)N2C[C@H](F)C[C@H]2C(=O)Nc2cccc(Br)n2)c2ccc(-c3cnc(O[C@@H]4CO[C@H]5[C@@H]4OC[C@H]5O)nc3)cc12` [Compound 502, (2S,4R)-1-(2-(3-Acetyl-5-(2-((3R,3aR,6R,6aR)-6-hydroxyhexahydrofuro[3,2-b]furan-3-yloxy)pyrimidin-5-yl)-1H-indol-1-yl)acetyl)-N-(6-bromopyridin-2-yl)-4-fluoropyrrolidine-2-carboxamide]: the IC50 was < 1 µM.

Consider `CC(=O)Cc1nn(CC(=O)N2C[C@H](F)C[C@H]2C(=O)Nc2cccc(Br)n2)c2ccc(-c3cnc(C)nc3)cc12` [Compound 522, (2S,4R)-N-(6-bromopyridin-2-yl)-4-fluoro-1-(2-(5-(2-methylpyrimidin-5-yl)-3-(2-oxopropyl)-1H-indazol-1-yl)acetyl)pyrrolidine-2-carboxamide], for which the IC50 is < 1 µM.

In the case of `CC(=O)c1nn(CC(=O)N2C[C@H](F)C[C@H]2C(=O)Nc2cccc(-c3ccc4scnc4c3)c2F)c2ccc(-c3cnc(C)nc3)cc12` [Compound 520, (2S,4R)-1-(2-(3-acetyl-5-(2-methylpyrimidin-5-yl)-1H-indazol-1-yl)acetyl)-N-(3-(benzo[d]thiazol-5-yl)-2-fluorophenyl)-4-fluoropyrrolidine-2-carboxamide], the IC50 was < 1 µM.

`CC(=O)c1cn(CC(=O)N(C)[C@H](C(=O)Nc2cccc(-c3ccccc3Cl)c2F)[C@@H](C)O)c2ccc(-c3cnc(C)nc3)cc12` [Compound 506, (2S,3R)-2-(2-(3-Acetyl-5-(2-methylpyrimidin-5-yl)-1H-indol-1-yl)-N-methylacetamido)-N-(2′-chloro-2-fluorobiphenyl-3-yl)-3-hydroxybutanamide] gave an IC50 of 1 to 10 µM.

Regarding `CC(=O)c1nn(CC(=O)N2C[C@H](F)C[C@H]2C(=O)Nc2cccc(-c3ccccc3Cl)c2F)c2ccc(N3CCn4c(nnc4C(F)(F)F)C3)cc12` [Compound 531, (2S,4R)-1-(2-(3-acetyl-5-(3-(trifluoromethyl)-5,6-dihydro-[1,2,4]triazolo[4,3-a]pyrazin-7(8H)-yl)-1H-indazol-1-yl)acetyl)-N-(2′-chloro-2-fluorobiphenyl-3-yl)-4-fluoropyrrolidine-2-carboxamide], the half-inhibitory concentration (IC50) was < 1 µM.

The assay is the same for the next values; noted with them: Table 4; Factor D inhibition, substrate Z-L-Lys-SBzl.
Regarding `COc1ncc(-c2ccc3c(c2)c(C(C)=O)nn3CC(=O)N2C[C@H](F)C[C@H]2C(=O)Nc2nc(Br)ccc2C)cn1` [Compound 554, (2S,4R)-1-(2-(3-acetyl-5-(2-methoxypyrimidin-5-yl)-1H-indazol-1-yl)acetyl)-N-(6-bromo-3-methylpyridin-2-yl)-4-fluoropyrrolidine-2-carboxamide], the IC50 is < 1 µM.

`CC[C@@H](C(=O)Nc1cccc(Br)n1)N(C)C(=O)Cn1nc(C(C)=O)c2cc(-c3cnc(C)nc3)ccc21` [Compound 598, (S)-2-(2-(3-Acetyl-5-(2-methylpyrimidin-5-yl)-1H-indazol-1-yl)-N-methylacetamido)-N-(6-bromopyridin-2-yl)butanamide] gave an IC50 of 1 to 10 µM.

Turning to `CC(=O)c1nn(CC(=O)N2C[C@H](F)C[C@H]2CC(=O)O)c2ccc(-c3cnc(C)nc3)cc12` [Compound 577, 2-((2R,4R)-1-(2-(3-Acetyl-5-(2-methylpyrimidin-5-yl)-1H-indazol-1-yl)acetyl)-4-fluoropyrrolidin-2-yl)acetic Acid], the IC50 was > 10 µM.

As for `Cc1cccc(C[C@@H](O)[C@H]2C[C@@H](F)CN2C(=O)Cn2cc(C(N)=O)c3cc(-c4cnc(C)nc4)ccc32)n1` [Compound 561, 1-(2-((2R,4R)-4-Fluoro-2-((R)-1-hydroxy-2-(6-methylpyridin-2-yl)ethyl)pyrrolidin-1-yl)-2-oxoethyl)-5-(2-methylpyrimidin-5-yl)-1H-indole-3-carboxamide], the IC50 is > 10 µM.

Turning to `Cc1cccc(NC(=O)[C@@H]2CCC(F)CCN2C(=O)Cn2cc(C(N)=O)c3cc(-c4cnc(C)nc4)ccc32)n1` (stereo partly drawn) [Compound 578, 1-(2-((2S)-5-Fluoro-2-((6-methylpyridin-2-yl)carbamoyl)azepan-1-yl)-2-oxoethyl)-5-(2-methylpyrimidin-5-yl)-1H-indole-3-carboxamide], the concentration for half-maximal inhibition (IC50) is > 10 µM.

As for `Cc1cccc(NC(=O)[C@@H]2CCC(F)CCN2C(=O)Cn2cc(C(N)=O)c3cc(-c4cnc5ncccn45)ccc32)n1` (stereo partly drawn) [Compound 615, 1-(2-((2S)-5-Fluoro-2-((6-methylpyridin-2-yl)carbamoyl)azepan-1-yl)-2-oxoethyl)-5-(imidazo[1,2-a]pyrimidin-3-yl)-1H-indole-3-carboxamide], the concentration for half-maximal inhibition (IC50) is > 10 µM.

Regarding `COC(=O)[C@@H]1C[C@@H](F)CN1C(=O)Cn1nc(C(C)O)c2cc(-c3cnc(C)nc3)ccc21` (stereo partly drawn) [Compound 633, Methyl (2S,4R)-4-fluoro-1-(2-(3-(1-hydroxyethyl)-5-(2-methylpyrimidin-5-yl)-1H-indazol-1-yl)acetyl)pyrrolidine-2-carboxylate], the IC50 was > 10 µM.

On to `CCOP(=O)(OCC)OC[C@@]12C[C@@H](C(=O)Nc3cccc(Br)n3)N(C(=O)Cn3nc(C(C)=O)c4cc(-c5cnc(C)nc5)ccc43)[C@@H]1C2` [Compound 582, ((1R,3S,5S)-2-(2-(3-Acetyl-5-(2-methylpyrimidin-5-yl)-1H-indazol-1-yl)acetyl)-3-(6-bromopyridin-2-ylcarbamoyl)-2-azabicyclo[3.1.0]hexan-5-yl)methyl diethyl phosphate], for which the IC50 is < 1 µM.

`CC(=O)c1nn(CC(=O)N2CCC[C@@H](CNC(=O)c3cccc(Br)n3)C2)c2ccc(-c3cnc(C)nc3)cc12` [Compound 543, (S)—N-((1-(2-(3-Acetyl-5-(2-methylpyrimidin-5-yl)-1H-indazol-1-yl)acetyl)piperidin-3-yl)methyl)-6-bromopicolinamide]: the IC50 was > 10 µM.

On to `CC(=O)c1nn(CC(=O)N2CCC[C@@H](C(=O)NCc3cccc(Br)n3)C2)c2ccc(-c3cnc(C)nc3)cc12` [Compound 642], for which the half-inhibitory concentration (IC50) is > 10 µM.

As for `CC(=O)c1nn(CC(=O)N2C[C@H](F)C[C@H]2C(=O)Nc2cccc(Br)n2)c2ccc(N3CCn4c(nnc4C(F)(F)F)C3)cc12` [Compound 618, (2S,4R)-1-(2-(3-acetyl-5-(3-(trifluoromethyl)-5,6-dihydro-[1,2,4]triazolo[4,3-a]pyrazin-7(8H)-yl)-1H-indazol-1-yl)acetyl)-N-(6-bromopyridin-2-yl)-4-fluoropyrrolidine-2-carboxamide], the IC50 was < 1 µM.

`CC(=O)c1nn(CC(=O)N2C[C@H](F)C[C@H]2CNCc2cccc(Cl)c2F)c2ccc(-c3cnc(C)nc3)cc12` [Compound 630, 2-(3-Acetyl-5-(2-methylpyrimidin-5-yl)-1H-indazol-1-yl)-1-((2S,4R)-2-(((3-chloro-2-fluorobenzyl)amino)methyl)-4-fluoropyrrolidin-1-yl)ethan-1-one] yielded an IC50 of 1 to 10 µM.

In the case of `Cc1cccc(NC(=O)[C@@H]2CCC(F)CCN2C(=O)Cn2cc(C(N)=O)c3cc(-c4ccc5ccccc5c4)ccc32)n1` (stereo partly drawn) [Compound 594, 1-(2-((2S)-5-Fluoro-2-((6-methylpyridin-2-yl)carbamoyl)azepan-1-yl)-2-oxoethyl)-5-(naphthaalen-2-yl)-1H-indole-3-carboxamide], the IC50 is > 10 µM.

For the compound `Cc1ncc(-c2ccc3c(c2)c(C(=N)N)nn3CC(=O)N2C[C@H](F)C[C@H]2C(=O)Nc2cccc(-c3ccccc3Cl)c2F)cn1` [Compound 542, (2S,4R)-1-(2-(3-Carbamimidoyl-5-(2-methylpyrimidin-5-yl)-1H-indazol-1-yl)acetyl)-N-(2′-chloro-2-fluoro-[1,1′-biphenyl]-3-yl)-4-fluoropyrrolidine-2-carboxamide], the IC50 is < 1 µM.

As for `Cc1cccc(C[C@H](O)[C@@H]2C[C@@H](F)CN2C(=O)Cn2cc(C(N)=O)c3cc(-c4cnc(C)nc4)ccc32)n1` [Compound 559, 1-(2-((2S,4R)-4-Fluoro-2-((S)-1-hydroxy-2-(6-methylpyridin-2-yl)ethyl)pyrrolidin-1-yl)-2-oxoethyl)-5-(2-methylpyrimidin-5-yl)-1H-indole-3-carboxamide], the IC50 is > 10 µM.

As to `CC(=O)c1nn(CC(=O)N2CCC[C@@H](CNC(=O)c3ncc(Br)s3)C2)c2ccc(-c3cnc(C)nc3)cc12` [Compound 548, (S)—N-((1-(2-(3-Acetyl-5-(2-methylpyrimidin-5-yl)-1H-indazol-1-yl)acetyl)piperidin-3-yl)methyl)-5-bromothiazole-2-carboxamide], the IC50 was > 10 µM.

Consider `CC(=O)c1nn(CC(=O)N2C[C@H](F)C[C@H]2CC(=O)Nc2cccc(Cl)c2F)c2ccc(-c3cnc(C)nc3)cc12` [Compound 576, 2-((2R,4R)-1-(2-(3-Acetyl-5-(2-methylpyrimidin-5-yl)-1H-indazol-1-yl)acetyl)-4-fluoropyrrolidin-2-yl)-N-(3-chloro-2-fluorophenyl)acetamide], for which the IC50 is > 10 µM.

Take `Cc1cccc(NC(=O)[C@@H]2CCC(F)CCN2C(=O)Cn2cc(C(N)=O)c3cc(-c4cnc5n4CCCC5)ccc32)n1` (stereo partly drawn) [Compound 616, 1-(2-((2S)-5-Fluoro-2-((6-methylpyridin-2-yl)carbamoyl)azepan-1-yl)-2-oxoethyl)-5-(5,6,7,8-tetrahydroimidazo[1,2-a]pyridin-3-yl)-1H-indole-3-carboxamide]: the IC50 is > 10 µM.
